Laboratory results as given in ChEMBL document CHEMBL4334438, “Discovery of novel glycogen synthase kinase-3α inhibitors: Structure-based virtual screening, preliminary SAR and biological evaluation for treatment of acute myeloid leukemia” (Eur J Med Chem, 2019).

Assays:
[1] = target: Cyclin-dependent kinase 14/Cyclin-Y (Homo sapiens) (UniProt O94921+Q8ND76); assay: Inhibition of recombinant full length human CDK14/cyclinY assessed as residual activity at 1 uM in presence of [gamma-33ATP] by scintillation counting based radiometry assay relative to control; assay type: protein-complex assay
[2] = target: Platelet-derived growth factor receptor beta (Homo sapiens) (UniProt P09619); assay: Inhibition of human PDGFRbeta (557 to end residues) assessed as residual activity at 1 uM using poly(Glu, Tyr) 4:1 as substrate measured after 40 mins in presence of [gamma33P]ATP by scintillation counting method relative to control
[3] = test system: Hepatocyte growth factor receptor (Homo sapiens), P08581 [Y1230D]; assay: Inhibition of recombinant human MET A1209G/V1290L/Y1248D mutant (974 to end residues) assessed as residual activity at 1 uM using KKKGQEEEYVFIE as substrate incubated for 40 mins in presence of [gamma-33ATP by scintillation counting based radiometry assay relative to control
[4] = target: Aurora kinase B (Homo sapiens) (UniProt Q96GD4); assay: Inhibition of recombinant full length human Aurora B assessed as residual activity at 1 uM using AKRRRLSSLRA as substrate incubated for 40 mins in presence of [gamma-33ATP] by scintillation counting based radiometry assay relative to control
[5] = target: Proto-oncogene tyrosine-protein kinase Src (Homo sapiens) (UniProt P12931); assay: Inhibition of recombinant human C-Src assessed as residual activity at 1 uM KVEKIGEGTYGVV as substrate incubated 40 mins in presence of [gamma-33ATP] by scintillation counting based radiometry assay relative to control
Sequence of Proto-oncogene tyrosine-protein kinase Src (Homo sapiens) (P12931 2-536 limits assumed): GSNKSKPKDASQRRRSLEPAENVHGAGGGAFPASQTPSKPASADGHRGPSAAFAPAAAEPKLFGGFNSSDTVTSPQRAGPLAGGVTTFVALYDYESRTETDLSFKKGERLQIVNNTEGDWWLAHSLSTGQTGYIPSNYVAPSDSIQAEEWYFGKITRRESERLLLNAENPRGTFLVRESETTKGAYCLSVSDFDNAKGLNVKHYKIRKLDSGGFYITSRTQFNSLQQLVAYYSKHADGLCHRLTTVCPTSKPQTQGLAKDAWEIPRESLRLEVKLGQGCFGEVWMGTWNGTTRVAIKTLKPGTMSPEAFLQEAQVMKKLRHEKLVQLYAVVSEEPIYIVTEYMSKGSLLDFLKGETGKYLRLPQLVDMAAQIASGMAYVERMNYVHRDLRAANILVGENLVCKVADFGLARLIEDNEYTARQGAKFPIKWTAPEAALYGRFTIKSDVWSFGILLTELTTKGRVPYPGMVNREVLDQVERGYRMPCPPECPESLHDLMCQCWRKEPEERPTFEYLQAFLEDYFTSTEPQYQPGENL

[6] = species: Homo sapiens; assay: Inhibition of human MAPK2 assessed as residual activity at 1 uM relative to control
[7] = test system: Mitogen-activated protein kinase kinase kinase 10 (MLK2); assay: Inhibition of recombinant human MLK2 (1 to 499 residues) assessed as residual activity at 1 uM using myelin basic protein as substrate incubated for 40 mins in presence of [gamma-33ATP by scintillation counting based radiometry assay relative to control
[8] = species: Homo sapiens; assay: Inhibition of recombinant full length human PKBalpha S478G mutant assessed as residual activity at 1 uM using GRPRTSSFAEGKK as substrate measured after 40 mins in presence of [gamma33P]ATP by scintillation counting method relative to control
[9] = target: Protein kinase C gamma type (Homo sapiens) (UniProt P05129); assay: Inhibition of recombinant full-length human PKCgamma assessed as residual activity at 1 uM using histone H1 as substrate measured after 40 mins in presence of [gamma33P]ATP by scintillation counting method relative to control
[10] = target: Cyclin-dependent kinase-like 3 (Homo sapiens) (UniProt Q8IVW4); assay: Inhibition of recombinant full length human CDKL3 assessed as residual activity at 1 uM using RRRFRPASPLRGPPK as substrate incubated for 120 mins in presence of [gamma-33ATP] by scintillation counting based radiometry assay relative to control
Sequence of Cyclin-dependent kinase-like 3 (Homo sapiens) (Q8IVW4 whole entry, looked up, the tested form may be a part): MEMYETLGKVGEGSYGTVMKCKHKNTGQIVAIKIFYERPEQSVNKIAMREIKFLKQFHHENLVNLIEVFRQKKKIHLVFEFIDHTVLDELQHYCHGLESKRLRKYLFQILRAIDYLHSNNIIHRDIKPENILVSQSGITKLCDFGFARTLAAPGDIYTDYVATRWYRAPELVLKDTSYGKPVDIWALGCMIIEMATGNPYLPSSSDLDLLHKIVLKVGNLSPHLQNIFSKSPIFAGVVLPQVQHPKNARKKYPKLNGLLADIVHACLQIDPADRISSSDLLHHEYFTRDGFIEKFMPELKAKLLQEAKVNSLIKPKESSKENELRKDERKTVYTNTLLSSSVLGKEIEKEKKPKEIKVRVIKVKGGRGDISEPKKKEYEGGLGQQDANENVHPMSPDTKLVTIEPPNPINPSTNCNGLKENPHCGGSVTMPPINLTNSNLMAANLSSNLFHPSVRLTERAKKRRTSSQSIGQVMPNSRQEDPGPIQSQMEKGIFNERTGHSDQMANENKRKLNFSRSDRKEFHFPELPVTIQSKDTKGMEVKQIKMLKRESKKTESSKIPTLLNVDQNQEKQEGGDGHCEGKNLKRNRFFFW

[11] = target: Proto-oncogene tyrosine-protein kinase Src (Homo sapiens) (UniProt P12931); assay: Inhibition of human Src (1 to 530 residues) assessed as residual activity at 1 uM using GGEEEEYFELVKKKK as substrate measured after 40 mins in presence of [gamma33P]ATP by scintillation counting method relative to control
[12] = target: BDNF/NT-3 growth factors receptor (Homo sapiens) (UniProt Q16620); assay: Inhibition of human TrkB (455 to end residues) assessed as residual activity at 1 uM using poly(Glu, Tyr) 4:1 as substrate measured after 40 mins in presence of [gamma33P]ATP by scintillation counting method relative to control
Sequence of BDNF/NT-3 growth factors receptor (Homo sapiens) (Q16620 32-822 limits assumed): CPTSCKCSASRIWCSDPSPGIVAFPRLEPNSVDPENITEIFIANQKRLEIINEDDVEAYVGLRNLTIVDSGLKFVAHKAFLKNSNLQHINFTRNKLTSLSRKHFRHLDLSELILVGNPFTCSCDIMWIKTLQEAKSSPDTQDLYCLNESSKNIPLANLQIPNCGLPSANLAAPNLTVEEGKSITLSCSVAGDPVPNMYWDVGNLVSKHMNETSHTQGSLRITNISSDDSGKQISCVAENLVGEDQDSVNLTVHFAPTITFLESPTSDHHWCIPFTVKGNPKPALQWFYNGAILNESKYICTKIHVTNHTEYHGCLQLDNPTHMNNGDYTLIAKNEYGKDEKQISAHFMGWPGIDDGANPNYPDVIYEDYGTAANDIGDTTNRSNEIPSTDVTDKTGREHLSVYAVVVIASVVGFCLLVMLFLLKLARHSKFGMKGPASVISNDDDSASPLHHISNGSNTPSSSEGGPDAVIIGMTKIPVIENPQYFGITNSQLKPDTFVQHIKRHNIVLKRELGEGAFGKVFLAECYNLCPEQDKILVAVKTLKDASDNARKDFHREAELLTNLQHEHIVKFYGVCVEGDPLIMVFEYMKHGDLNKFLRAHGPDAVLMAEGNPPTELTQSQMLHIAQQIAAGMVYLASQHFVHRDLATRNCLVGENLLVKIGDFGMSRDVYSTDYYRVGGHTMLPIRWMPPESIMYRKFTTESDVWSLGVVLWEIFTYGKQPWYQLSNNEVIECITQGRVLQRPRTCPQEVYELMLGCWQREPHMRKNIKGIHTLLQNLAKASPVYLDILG

[13] = target: FKBP12A/mTOR (Homo sapiens) (UniProt P62942+P42345); assay: Inhibition of recombinant full length human mTOR/FKBP12 assessed as residual activity at 1 uM measured after 40 mins in presence of [gamma33P]ATP by scintillation counting based radiometry assay relative to control; assay type: protein-complex assay
[14] = target: Activin receptor type-1-like (Homo sapiens) (UniProt P37023); assay: Inhibition of recombinant human ALK1 (142 to end residues) assessed as residual activity at 1 uM using casein as substrate incubated for 40 mins in presence of [gamma-33ATP] by scintillation counting based radiometry assay relative to control
[15] = target: Transient receptor potential cation channel subfamily M member 7 (Homo sapiens) (UniProt Q96QT4); assay: Inhibition of recombinant human CHAK1 (1180 to end residues) assessed as residual activity at 1 uM using myelin basic protein as substrate incubated for 40 mins in presence of [gamma-33ATP] by scintillation counting based radiometry assay relative to control
Sequence of Transient receptor potential cation channel subfamily M member 7 (Homo sapiens) (Q96QT4 whole entry): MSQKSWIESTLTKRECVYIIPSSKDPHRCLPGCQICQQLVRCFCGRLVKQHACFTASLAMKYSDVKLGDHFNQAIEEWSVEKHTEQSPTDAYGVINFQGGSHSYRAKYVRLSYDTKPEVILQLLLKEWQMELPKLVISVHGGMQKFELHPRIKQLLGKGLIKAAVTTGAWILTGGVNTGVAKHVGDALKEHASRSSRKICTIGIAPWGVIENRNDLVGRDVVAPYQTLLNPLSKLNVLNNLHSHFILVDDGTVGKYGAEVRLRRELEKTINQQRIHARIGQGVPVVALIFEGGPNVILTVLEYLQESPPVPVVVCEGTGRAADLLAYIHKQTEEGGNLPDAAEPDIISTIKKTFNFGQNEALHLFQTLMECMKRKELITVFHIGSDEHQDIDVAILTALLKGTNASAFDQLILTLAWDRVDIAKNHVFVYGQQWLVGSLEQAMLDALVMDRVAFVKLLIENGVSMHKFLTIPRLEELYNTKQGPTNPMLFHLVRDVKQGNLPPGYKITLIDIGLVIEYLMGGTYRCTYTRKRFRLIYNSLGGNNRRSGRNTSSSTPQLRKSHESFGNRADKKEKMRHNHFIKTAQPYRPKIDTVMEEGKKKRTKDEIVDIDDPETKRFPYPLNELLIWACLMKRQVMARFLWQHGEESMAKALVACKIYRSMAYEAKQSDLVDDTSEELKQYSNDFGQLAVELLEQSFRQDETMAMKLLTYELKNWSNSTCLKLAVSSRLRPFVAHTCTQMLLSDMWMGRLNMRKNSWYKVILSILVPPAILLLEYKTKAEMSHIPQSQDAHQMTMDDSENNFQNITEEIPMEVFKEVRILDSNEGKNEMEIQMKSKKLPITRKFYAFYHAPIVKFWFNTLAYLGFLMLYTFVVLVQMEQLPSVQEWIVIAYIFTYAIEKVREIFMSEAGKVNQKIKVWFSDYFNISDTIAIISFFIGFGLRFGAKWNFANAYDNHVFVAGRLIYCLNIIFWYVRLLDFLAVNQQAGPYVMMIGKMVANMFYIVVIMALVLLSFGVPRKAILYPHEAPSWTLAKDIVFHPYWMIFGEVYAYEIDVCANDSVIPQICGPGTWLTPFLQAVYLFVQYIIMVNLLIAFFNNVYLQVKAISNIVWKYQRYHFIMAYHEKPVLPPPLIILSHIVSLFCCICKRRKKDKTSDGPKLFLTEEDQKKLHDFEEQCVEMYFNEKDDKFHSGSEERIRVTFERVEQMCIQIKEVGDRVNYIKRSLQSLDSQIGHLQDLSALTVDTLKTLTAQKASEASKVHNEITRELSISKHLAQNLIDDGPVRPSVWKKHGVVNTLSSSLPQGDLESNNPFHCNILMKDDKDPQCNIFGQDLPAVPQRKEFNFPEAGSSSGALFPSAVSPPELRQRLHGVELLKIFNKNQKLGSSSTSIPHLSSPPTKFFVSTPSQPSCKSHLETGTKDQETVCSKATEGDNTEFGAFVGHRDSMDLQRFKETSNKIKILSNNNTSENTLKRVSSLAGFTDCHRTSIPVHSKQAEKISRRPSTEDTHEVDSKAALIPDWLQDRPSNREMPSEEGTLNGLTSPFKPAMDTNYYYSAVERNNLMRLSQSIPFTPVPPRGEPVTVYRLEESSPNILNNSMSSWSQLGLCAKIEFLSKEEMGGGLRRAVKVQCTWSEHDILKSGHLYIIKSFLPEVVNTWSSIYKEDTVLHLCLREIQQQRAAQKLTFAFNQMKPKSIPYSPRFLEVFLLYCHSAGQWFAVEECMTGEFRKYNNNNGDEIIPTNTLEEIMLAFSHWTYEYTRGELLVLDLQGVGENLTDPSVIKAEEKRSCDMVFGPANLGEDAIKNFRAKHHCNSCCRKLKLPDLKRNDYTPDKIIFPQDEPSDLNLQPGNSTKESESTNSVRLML

[16] = target: Serine/threonine-protein kinase PAK 4 (Homo sapiens) (UniProt O96013); assay: Inhibition of recombinant human PAK4 (295 to end residues) assessed as residual activity at 1 uM using myelin basic protein as substrate measured after 40 mins in presence of [gamma33P]ATP by scintillation counting method relative to control
Sequence of Serine/threonine-protein kinase PAK 4 (Homo sapiens) (O96013 whole entry, looked up): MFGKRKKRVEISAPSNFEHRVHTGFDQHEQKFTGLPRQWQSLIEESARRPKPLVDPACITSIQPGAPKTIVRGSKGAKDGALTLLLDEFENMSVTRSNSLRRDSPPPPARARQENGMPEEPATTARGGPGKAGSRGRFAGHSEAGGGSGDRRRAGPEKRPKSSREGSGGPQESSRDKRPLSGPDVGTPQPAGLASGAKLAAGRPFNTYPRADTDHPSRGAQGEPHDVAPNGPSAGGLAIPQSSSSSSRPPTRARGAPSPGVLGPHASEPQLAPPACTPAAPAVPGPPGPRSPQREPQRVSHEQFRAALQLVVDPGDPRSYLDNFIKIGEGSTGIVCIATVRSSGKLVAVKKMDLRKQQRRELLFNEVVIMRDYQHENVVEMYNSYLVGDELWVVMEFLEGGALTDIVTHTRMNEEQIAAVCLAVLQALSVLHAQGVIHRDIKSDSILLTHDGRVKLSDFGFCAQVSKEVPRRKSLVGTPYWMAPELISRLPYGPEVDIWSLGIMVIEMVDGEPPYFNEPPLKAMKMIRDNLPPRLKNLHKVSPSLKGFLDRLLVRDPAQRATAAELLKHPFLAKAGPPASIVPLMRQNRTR

[17] = target: MAP/microtubule affinity-regulating kinase 4 (Homo sapiens) (UniProt Q96L34); assay: Inhibition of recombinant full length human MARK4 assessed as residual activity at 1 uM using KKKVSRSGLYRSPSMPENLNRPR as substrate incubated for 40 mins in presence of [gamma-33ATP by scintillation counting based radiometry assay relative to control
[18] = target: Serine/threonine-protein kinase MARK2 (Homo sapiens) (UniProt Q7KZI7); assay: Inhibition of recombinant full-length human PAR1Balpha assessed as residual activity at 1 uM using KKKVSRSGLYRSPSMPENLNRPR as substrate measured after 40 mins in presence of [gamma33P]ATP by scintillation counting method relative to control
[19] = target: Mitogen-activated protein kinase kinase kinase 2 (Homo sapiens) (UniProt Q9Y2U5); assay: Inhibition of recombinant full length human MEKK2 assessed as residual activity at 1 uM using myelin basic protein as substrate incubated for 40 mins in presence of [gamma-33ATP by scintillation counting based radiometry assay relative to control
Sequence of Mitogen-activated protein kinase kinase kinase 2 (Homo sapiens) (Q9Y2U5 whole entry): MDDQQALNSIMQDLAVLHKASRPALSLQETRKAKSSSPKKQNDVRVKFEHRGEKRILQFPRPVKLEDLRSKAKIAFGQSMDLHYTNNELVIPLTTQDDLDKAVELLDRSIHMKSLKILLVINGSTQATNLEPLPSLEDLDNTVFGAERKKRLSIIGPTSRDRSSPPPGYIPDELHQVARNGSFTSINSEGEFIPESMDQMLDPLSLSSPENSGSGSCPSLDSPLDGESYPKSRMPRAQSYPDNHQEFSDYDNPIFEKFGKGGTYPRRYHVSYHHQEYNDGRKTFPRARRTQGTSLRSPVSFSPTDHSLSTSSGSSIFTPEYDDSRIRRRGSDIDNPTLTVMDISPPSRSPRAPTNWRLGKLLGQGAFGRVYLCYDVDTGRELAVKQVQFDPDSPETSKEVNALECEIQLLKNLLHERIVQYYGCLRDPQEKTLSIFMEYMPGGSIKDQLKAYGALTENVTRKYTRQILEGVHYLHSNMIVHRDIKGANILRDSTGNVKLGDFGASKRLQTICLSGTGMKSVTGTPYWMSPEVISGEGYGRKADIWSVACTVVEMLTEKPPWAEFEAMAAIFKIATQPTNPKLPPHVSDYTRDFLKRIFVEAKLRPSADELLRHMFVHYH

[20] = target: CDK7/Cyclin H/MNAT1 (Homo sapiens) (UniProt P51946+P50613+P51948); assay: Inhibition of recombinant full length human CDK7/cyclinH/MAT1 assessed as residual activity at 1 uM using peptide as substrate incubated for 40 mins in presence of [gamma-33ATP] by scintillation counting based radiometry assay relative to control; assay type: protein-complex assay
[21] = target: Receptor-type tyrosine-protein kinase FLT3 (Homo sapiens) (UniProt P36888); assay: Inhibition of recombinant human FLT3 (564 to end residues) assessed as residual activity at 1 uM using EAIYAAPFAKKK as substrate at 40 mins in presence of [gamma-33ATP] by scintillation counting based radiometry assay relative to control
[22] = target: Serine/threonine-protein kinase pim-3 (Homo sapiens) (UniProt Q86V86); assay: Inhibition of recombinant human Pim3 (2 to end residues) assessed as residual activity at 1 uM using RSRHSSYPAGT as substrate measured after 40 mins in presence of [gamma33P]ATP by scintillation counting method relative to control

Compound	Activity [1] [%]	Activity [2] [%]	Activity [3] [%]	Activity [4] [%]	Activity [5] [%]	Activity [6] [%]	Activity [7] [%]	Activity [8] [%]	Activity [9] [%]	Activity [10] [%]	Activity [11] [%]	Activity [12] [%]	Activity [13] [%]	Activity [14] [%]	Activity [15] [%]	Activity [16] [%]	Activity [17] [%]	Activity [18] [%]	Activity [19] [%]	Activity [20] [%]	also measured
N=C1NC(=O)/C(=C\c2ccc(-c3cccc([N+](=O)[O-])c3)o2)S1	84	103	92	94	82	103	101	97	105	54	74	98	107	99	104	92	92	105	93	92	Activity [21]: 90%; Activity [22]: 21%
C=CCOC(=O)c1cc(-c2ccc(/C=C3/NC(=S)NC3=O)o2)ccc1Cl	91	108	105	110	79	99	103	97	104	67	92	92	97	95	99	101	113	95	98	94	Activity [21]: 108%; Activity [22]: 33%
